Experimental data reported in PMC7993727, “Discovery of a novel AR/HDAC6 dual inhibitor for prostate cancer treatment” (Aging (Albany NY), 2021).

Assays:
Assay type in all cases: cell-based
AR = biological target: T1, AR (Homo sapiens, UniProt P10275); experiment: cell-based; settings: VCaP cells
T1 construct: The VCaP cells were transfected with MMTV-LUC for 24 hours; endogenous in cells; host or cells: VCaP
T1 sequence (P10275 1-920): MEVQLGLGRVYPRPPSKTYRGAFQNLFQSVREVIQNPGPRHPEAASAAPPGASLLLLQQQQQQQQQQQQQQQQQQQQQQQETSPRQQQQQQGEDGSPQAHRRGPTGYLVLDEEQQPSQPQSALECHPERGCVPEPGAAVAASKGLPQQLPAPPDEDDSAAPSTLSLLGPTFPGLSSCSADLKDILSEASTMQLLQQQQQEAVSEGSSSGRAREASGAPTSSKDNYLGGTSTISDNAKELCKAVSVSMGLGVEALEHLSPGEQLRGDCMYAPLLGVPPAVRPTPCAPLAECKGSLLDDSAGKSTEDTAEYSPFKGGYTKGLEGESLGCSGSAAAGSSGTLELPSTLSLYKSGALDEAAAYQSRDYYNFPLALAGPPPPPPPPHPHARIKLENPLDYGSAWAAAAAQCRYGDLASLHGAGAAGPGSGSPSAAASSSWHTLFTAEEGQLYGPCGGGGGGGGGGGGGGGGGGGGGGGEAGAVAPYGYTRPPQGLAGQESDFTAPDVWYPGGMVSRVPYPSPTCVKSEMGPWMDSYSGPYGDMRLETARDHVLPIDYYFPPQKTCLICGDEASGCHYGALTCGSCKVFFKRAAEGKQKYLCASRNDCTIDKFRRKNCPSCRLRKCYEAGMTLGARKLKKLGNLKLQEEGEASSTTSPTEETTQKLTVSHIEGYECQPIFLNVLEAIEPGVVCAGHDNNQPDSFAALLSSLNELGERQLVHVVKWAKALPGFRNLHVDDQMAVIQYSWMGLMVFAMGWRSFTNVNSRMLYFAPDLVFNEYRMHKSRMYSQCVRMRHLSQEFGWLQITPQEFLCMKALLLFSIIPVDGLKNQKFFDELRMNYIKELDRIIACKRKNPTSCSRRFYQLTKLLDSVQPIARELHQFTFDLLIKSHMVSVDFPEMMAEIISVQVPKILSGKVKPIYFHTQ
Procedure: To evaluate the AR inhibition activities of Zeta55, an AR luciferase activity assay was performed (Table 1 and Supplementary Figure 1). […] To evaluate the HDAC inhibition activities of Zeta55, fluorescent-based HDAC assays were performed (Table 1 and Supplementary Figure 3).

LNCaP cells = experiment: cell proliferation assay; settings: Homo sapiens, 72 h, read-out: IC50 values proliferation LNCaP
Procedure: (§1) After 7 days, cell viability was measured using a CellTiter 96® AQueous One Solution Cell Proliferation Assay kit (Promega).

VCaP cells = experiment: cell proliferation assay
Procedure: as §1

HDAC6 = biological target: T2, HDAC6 (Homo sapiens, UniProt Q9UBN7); experiment: acetylation of α-tubulin (HDAC6 substrate) in VCaP cells, Western blot; settings: 24 hours
T2 sequence (Q9UBN7 1-1215): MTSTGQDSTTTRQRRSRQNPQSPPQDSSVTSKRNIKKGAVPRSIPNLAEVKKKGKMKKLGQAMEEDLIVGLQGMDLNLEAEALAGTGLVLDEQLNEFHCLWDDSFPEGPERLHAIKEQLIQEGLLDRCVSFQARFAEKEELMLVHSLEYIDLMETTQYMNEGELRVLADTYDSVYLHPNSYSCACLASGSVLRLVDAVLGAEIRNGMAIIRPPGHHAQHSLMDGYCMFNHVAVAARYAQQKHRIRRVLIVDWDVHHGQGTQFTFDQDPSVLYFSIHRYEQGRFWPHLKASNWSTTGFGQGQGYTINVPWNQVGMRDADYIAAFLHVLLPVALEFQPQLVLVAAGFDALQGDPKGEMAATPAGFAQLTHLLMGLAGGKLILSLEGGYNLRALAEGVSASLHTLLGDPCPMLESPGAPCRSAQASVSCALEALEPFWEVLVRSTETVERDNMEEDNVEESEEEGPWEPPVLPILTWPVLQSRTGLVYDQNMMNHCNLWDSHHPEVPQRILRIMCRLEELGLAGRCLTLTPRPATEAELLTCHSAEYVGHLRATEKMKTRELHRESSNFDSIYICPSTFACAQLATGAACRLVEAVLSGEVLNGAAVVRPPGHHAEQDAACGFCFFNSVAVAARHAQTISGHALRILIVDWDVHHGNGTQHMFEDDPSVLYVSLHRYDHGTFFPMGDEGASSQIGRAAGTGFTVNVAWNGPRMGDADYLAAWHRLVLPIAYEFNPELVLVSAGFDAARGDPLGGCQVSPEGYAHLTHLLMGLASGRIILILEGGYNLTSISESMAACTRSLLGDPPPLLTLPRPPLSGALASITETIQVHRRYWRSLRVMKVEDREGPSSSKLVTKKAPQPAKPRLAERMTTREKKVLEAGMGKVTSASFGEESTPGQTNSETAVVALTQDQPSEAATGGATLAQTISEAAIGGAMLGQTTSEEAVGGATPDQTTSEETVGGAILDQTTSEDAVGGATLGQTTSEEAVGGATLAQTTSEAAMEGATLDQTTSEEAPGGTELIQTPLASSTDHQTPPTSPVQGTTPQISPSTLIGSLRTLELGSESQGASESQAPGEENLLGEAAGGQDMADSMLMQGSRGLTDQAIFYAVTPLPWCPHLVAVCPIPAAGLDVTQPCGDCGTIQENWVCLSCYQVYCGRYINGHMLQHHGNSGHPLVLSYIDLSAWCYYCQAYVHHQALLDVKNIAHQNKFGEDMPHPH
Procedure: RNA expression level was analyzed by qRT-PCR and protein expression level was analyzed by Western blot. […] (I) Representative immunofluorescence microscopic images of VCaP cells for checking the subcellular localization of AR.
To evaluate the HDAC6 inhibition ability of Zeta55 in VCaP cells, the acetylation status of α-tubulin protein (a HDAC6 substrate) was assessed using western blot. […] We assessed the protein level of AR in VCaP cells.
The whole-cell extracts were prepared in lysis buffer with a protease inhibitor cocktail (Bimake), while the xenograft tissue extracts were prepared in 0.5% Nonidet P 40 Substitute solution (Biosharp) with cocktail protease inhibitor (Bimake). Each sample containing 30 μg of total protein was loaded onto 10% SDS-PAGE and electrotransferred onto polyvinylidene fluoride membranes. The membranes were blocked with 5% skimmed milk in PBST at room temperature for 2 hours and incubated with primary antibodies at 4° C overnight. After the membranes were washed with PBST three times, they were incubated with horseradish peroxidase-conjugated anti-rabbit or anti-mouse secondary antibody at room temperature for 1 hour. Chemiluminescent detection was performed with WesternBright ECL (Advansta). The immunoblots were visualized using the FluorChem FC3 system (ProteinSimple).

N#Cc1ccc(N2C(=O)C3(CCC3)N(c3ccc(C(=O)NO)c(F)c3)C2=S)cc1C(F)(F)F [Zeta55]
IC50 (AR; AR luciferase activity assay, MMTV-LUC, with 10 nM DHT): 630 nM
AR antagonist activity, AR-mediated expression of reporter gene (AR; in the presence of DHT): potently inhibited
AR agonist activity, expression of reporter gene (AR; without DHT, 10 μM): did not induce the expression of reporter gene
IC50 (LNCaP cells): 8360 nM
IC50 (VCaP cells; Homo sapiens, VCaP, 168 h, read-out: IC50 values proliferation VCaP): 2470 nM
anti-proliferation activity relative to MDV3100 (VCaP cells; VCaP cells): 4.5 fold
α-tubulin acetylation (HDAC6): enhanced α-tubulin acetylation in a dose-dependent manner
